System: 349418-098-R-PDC complex spheroid viability
Test: Anticancer human tumor 349418-098-R-PDC patient-derived lung adenocarcinoma cell line growth inhibition
Conditions: for IC50: curve of first compound; for viability, T/C: stronger effect = lower value; active = viability on the fitted dose curve at most 10% of control; inactive = the rest
In short: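 Complex spheroids of tumor cells with HUVEC and human MSCs, exposed to iadademstat combined with other agents. Each agent tested in half-log steps from near clinical Cmax (else 10 microM top), DMSO ≤0.25%.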

[1] = second compound 0.1 µM, first compound 0.00316 µM
[2] = second compound 0.1 µM, first compound 0.01 µM
[3] = second compound 0.1 µM, first compound 0.0316 µM
[4] = second compound 0.1 µM, first compound 0.1 µM
[5] = second compound 0.316 µM, first compound 0.00316 µM
[6] = second compound 0.316 µM, first compound 0.01 µM
[7] = second compound 0.316 µM, first compound 0.0316 µM
[8] = second compound 0.316 µM, first compound 0.1 µM
[9] = second compound 1 µM, first compound 0.00316 µM
[10] = second compound 1 µM, first compound 0.01 µM
[11] = second compound 1 µM, first compound 0.0316 µM
[12] = second compound 1 µM, first compound 0.1 µM
[13] = second compound 3.16 µM, first compound 0.00316 µM
[14] = second compound 3.16 µM, first compound 0.01 µM
[15] = second compound 3.16 µM, first compound 0.0316 µM
[16] = second compound 3.16 µM, first compound 0.1 µM
[17] = second compound 10 µM, first compound 0.00316 µM
[18] = second compound 10 µM, first compound 0.01 µM
[19] = second compound 10 µM, first compound 0.0316 µM
[20] = second compound 10 µM, first compound 0.1 µM
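Also: spheroids exposed to agents for seven days before readout.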
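For viability, T/C in this document: 100% = DMSO vehicle control wells.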

CC1COCCN1c1cc(-c2ccnn2C)c2ccnc(-c3ccn[nH]3)c2n1 (stereo not given) + NC1CCC(NC2CC2c2ccccc2)CC1
9.65 nM: IC50 (second compound 3.16 µM)
active: viability, T/C [4] 9.57% | viability, T/C (second compound 0.1 µM, first compound 0.316 µM) 7.39% | viability, T/C (second compound 0.1 µM, first compound 1 µM) 5.98% | viability, T/C [8] 9.43% | viability, T/C (second compound 0.316 µM, first compound 0.316 µM) 6.72% | viability, T/C (second compound 0.316 µM, first compound 1 µM) 6.47% | viability, T/C [12] 9.69% | viability, T/C (second compound 1 µM, first compound 0.316 µM) 7.82% | viability, T/C (second compound 1 µM, first compound 1 µM) 5.98% | viability, T/C [16] 8.55% | viability, T/C (second compound 3.16 µM, first compound 0.316 µM) 6.56% | viability, T/C (second compound 3.16 µM, first compound 1 µM) 5.96% | viability, T/C [20] 7.6% | viability, T/C (second compound 10 µM, first compound 0.316 µM) 6.06% | viability, T/C (second compound 10 µM, first compound 1 µM) 5.03%
16.1 nM: IC50 (second compound 0.316 µM)
13.7 nM: IC50 (second compound 0.1 µM)
11.4 nM: IC50 (second compound 1 µM)
8.1 nM: IC50 (second compound 10 µM)
inactive: viability, T/C [1] 91.5% | viability, T/C [2] 62.6% | viability, T/C [3] 16.8% | viability, T/C [5] 108% | viability, T/C [6] 71.9% | viability, T/C [7] 18.5% | viability, T/C [9] 98.5% | viability, T/C [10] 54.5% | viability, T/C [11] 16.6% | viability, T/C [13] 98.1% | viability, T/C [14] 48.5% | viability, T/C [15] 14.4% | viability, T/C [17] 90.7% | viability, T/C [18] 40.9% | viability, T/C [19] 14.5%

CC(C)CC(NC(=O)C(Cc1ccccc1)NC(=O)c1cnccn1)B(O)O (stereo not given) + NC1CC1c1ccc(-c2cccc(O)c2)cc1
active: viability, T/C (second compound 0.1 µM, first compound 0.000316 µM) 2.67% | viability, T/C (second compound 0.1 µM, first compound 0.001 µM) 1.51% | viability, T/C [1] 1.31% | viability, T/C [2] 0.5% | viability, T/C [3] 0.51% | viability, T/C [4] 0.69% | viability, T/C (second compound 0.316 µM, first compound 0.000316 µM) 1.86% | viability, T/C (second compound 0.316 µM, first compound 0.001 µM) 1.09% | viability, T/C [5] 0.81% | viability, T/C [6] 0.41% | viability, T/C [7] 0.45% | viability, T/C [8] 0.34% | viability, T/C (second compound 1 µM, first compound 0.000316 µM) 1.69% | viability, T/C (second compound 1 µM, first compound 0.001 µM) 1.07% | viability, T/C [9] 0.72% | viability, T/C [10] 0.42% | viability, T/C [11] 0.29% | viability, T/C [12] 0.53% | viability, T/C (second compound 3.16 µM, first compound 0.000316 µM) 1.62% | viability, T/C (second compound 3.16 µM, first compound 0.001 µM) 0.92% | viability, T/C [13] 0.86% | viability, T/C [14] 1.06% | viability, T/C [15] 0.37% | viability, T/C [16] 0.41% | viability, T/C (second compound 10 µM, first compound 0.000316 µM) 0.84% | viability, T/C (second compound 10 µM, first compound 0.001 µM) 0.41% | viability, T/C [17] 0.68% | viability, T/C [18] 0.31% | viability, T/C [19] 0.14% | viability, T/C [20] 0.17%
< 0.316 nM: IC50 (second compound 0.1 µM) | IC50 (second compound 0.316 µM) | IC50 (second compound 1 µM) | IC50 (second compound 3.16 µM) | IC50 (second compound 10 µM)

CCN(c1cc(-c2ccc(CN3CCOCC3)cc2)cc(C(=O)NCc2c(C)cc(C)[nH]c2=O)c1C)C1CCOCC1 + NC1CC1c1ccc(-c2cccc(O)c2)cc1
499 nM: IC50 (second compound 10 µM)
758 nM: IC50 (second compound 3.16 µM)
650 nM: IC50 (second compound 0.316 µM)
603 nM: IC50 (second compound 0.1 µM)
770 nM: IC50 (second compound 1 µM)
inactive: viability, T/C (second compound 0.1 µM, first compound 0.00949 µM) 116% | viability, T/C (second compound 0.1 µM, first compound 0.03 µM) 107% | viability, T/C (second compound 0.1 µM, first compound 0.0949 µM) 109% | viability, T/C (second compound 0.1 µM, first compound 0.3 µM) 74% | viability, T/C (second compound 0.1 µM, first compound 0.949 µM) 34.4% | viability, T/C (second compound 0.1 µM, first compound 3 µM) 11.4% | viability, T/C (second compound 0.316 µM, first compound 0.00949 µM) 120% | viability, T/C (second compound 0.316 µM, first compound 0.03 µM) 121% | viability, T/C (second compound 0.316 µM, first compound 0.0949 µM) 113% | viability, T/C (second compound 0.316 µM, first compound 0.3 µM) 77% | viability, T/C (second compound 0.316 µM, first compound 0.949 µM) 37.5% | viability, T/C (second compound 0.316 µM, first compound 3 µM) 11.9% | viability, T/C (second compound 1 µM, first compound 0.00949 µM) 123% | viability, T/C (second compound 1 µM, first compound 0.03 µM) 124% | viability, T/C (second compound 1 µM, first compound 0.0949 µM) 120% | viability, T/C (second compound 1 µM, first compound 0.3 µM) 89.2% | viability, T/C (second compound 1 µM, first compound 0.949 µM) 42% | viability, T/C (second compound 1 µM, first compound 3 µM) 14% | viability, T/C (second compound 3.16 µM, first compound 0.00949 µM) 126% | viability, T/C (second compound 3.16 µM, first compound 0.03 µM) 121% | viability, T/C (second compound 3.16 µM, first compound 0.0949 µM) 122% | viability, T/C (second compound 3.16 µM, first compound 0.3 µM) 89.1% | viability, T/C (second compound 3.16 µM, first compound 0.949 µM) 41.1% | viability, T/C (second compound 3.16 µM, first compound 3 µM) 14.3% | viability, T/C (second compound 10 µM, first compound 0.00949 µM) 107% | viability, T/C (second compound 10 µM, first compound 0.03 µM) 102% | viability, T/C (second compound 10 µM, first compound 0.0949 µM) 107% | viability, T/C (second compound 10 µM, first compound 0.3 µM) 70.8% | viability, T/C (second compound 10 µM, first compound 0.949 µM) 23.8% | viability, T/C (second compound 10 µM, first compound 3 µM) 11.2%

— PubChem BioAssay AID1918936 (Molecular Pharmacology Branch, DTP, NCI, 2023)
